Reference: ChEMBL document CHEMBL3769383, “Cefsulodin Inspired Potent and Selective Inhibitors of mPTPB, a Virulent Phosphatase from Mycobacterium tuberculosis” (ACS Med Chem Lett, 2015)

Assay: Inhibition of Mycobacterium tuberculosis PTPB expressed in Escherichia coli BL21/DE3 cells using pNPP as substrate after 5 mins by spectrophotometry

Compound | IC50 [µM]
O=C(NCCc1ccc(Cl)cc1Cl)C(c1ccccc1)S(=O)(=O)O (racemic) | 0.29
O=C(Nc1cccc2ccccc12)C(c1ccccc1)S(=O)(=O)O (racemic) | 0.72
